According to ChEMBL document CHEMBL5614437, “Antibacterial and Anti-Inflammatory Activity of Branched Peptides Derived from Natural Host Defense Sequences” (J Med Chem, 2024):
In brackets after ≈: the same amount, converted by molar mass. Each block holds one compound with its values, some of them ahead of it. Activity calls are given as the source filed them. The rule behind the calls is not given here. Where a SMILES comes first, the peptide text is derived from it. Bridges are numbered along the chain shown (N, C = ends). Roman numbers before positions name the chains, in order.

Legend:
Escherichia coli [1] = assay: Antibacterial activity against Escherichia coli TG1 incubated for 12 hrs by microdilution method; type: functional
Enterococcus faecalis = assay: Antibacterial activity against Enterococcus faecalis 51299 incubated for 12 hrs by microdilution method; type: functional
Klebsiella pneumoniae [2] = assay: Antibacterial activity against Klebsiella pneumoniae ATCC43816 incubated for 12 hrs by microdilution method; type: functional
Klebsiella pneumoniae [3] = assay: Antibacterial activity against colistin-resistant Klebsiella pneumoniae incubated for 12 hrs by microdilution method; type: functional
Escherichia coli [4] = assay: Antibacterial activity against Escherichia coli clinical isolate LC711/14 incubated for 12 hrs by microdilution method; type: functional
Pseudomonas aeruginosa = assay: Antibacterial activity against Pseudomonas aeruginosa ATCC 27853 incubated for 12 hrs by microdilution method; type: functional
Erythrocyte [5] = assay: Hemolytic activity in human RBC assessed as hemolysis at ~15 uM incubated for 2 hrs by absorbance based plate reader analysis; type: toxicity, cell-based
Staphylococcus aureus = assay: Antibacterial activity against Staphylococcus aureus USA300 incubated for 12 hrs by microdilution method; type: functional
[6] = Stability of compound in human serum at 180 uM measured after 4 hrs by HPLC-MS analysis; type: ADME, cell-free
[7] = Stability of compound in human serum at 180 uM measured after 24 hrs by HPLC-MS analysis; type: ADME, cell-free
Erythrocyte [8] = assay: Hemolytic activity in human RBC assessed as hemolysis at […] incubated for 2 hrs by absorbance based plate reader analysis; type: toxicity, cell-based
Klebsiella pneumoniae [9] = assay: Antibiofilm activity against 24 hrs preformed biofilm in Klebsiella pneumoniae ATCC43816 assessed as reduction in preformed biofilm incubated for 14 hrs by absorbance based analysis; type: functional
Lipopolysaccharide (LPS) = assay: Binding affinity to biotin-tagged LPS (unknown origin) preincubated for 30 mins followed by compound addition and 30 mins of incubation with streptavidin-POD by ELISA based microplate spectrophotometer; type: subcellular; conditions: dose 1-10 µg/ml
Cell membrane [10] = assay: Induction of cytoplasmic membrane permeabilization in Escherichia coli TG1 assessed as enlargement of bacterial cells at 2 times of MIC measured after 30 to 60 mins by SEM analysis; type: cell membranes; conditions: time 30-60 min
Escherichia coli [11] = assay: Antibiofilm activity against Escherichia coli TG1 assessed as inhibition of biofilm formation incubated for 24 hrs by absorbance based analysis; type: functional
Cell membrane [12] = assay: Induction of cytoplasmic membrane permeabilization in Escherichia coli TG1 assessed as increase in fluorescence incubated for 100 to 120 mins by PI/Sytox green dye based analysis; conditions: dose 1.5-3 µM, time 100-120 min
Erythrocyte [13] = assay: Hemolytic activity in human RBC assessed as hemolysis at 10 times of MIC incubated for 2 hrs by absorbance based plate reader analysis; type: toxicity, cell-based
Cell membrane [14] = assay: Induction of cytoplasmic membrane permeabilization in Escherichia coli TG1 assessed as wrinkling of membrane surface at 2 times of MIC measured after 30 to 60 mins by SEM analysis; conditions: time 30-60 min
Cell membrane [15] = assay: Induction of cytoplasmic membrane permeabilization in Escherichia coli TG1 assessed as increase in fluorescence at MIC measured after 40 to 50 mins by PI/Sytox green dye based analysis; conditions: time 40-50 min
Escherichia coli [16] = assay: Antibiofilm activity against 24 hrs preformed biofilm in Escherichia coli TG1 assessed as reduction in preformed biofilm incubated for 14 hrs by absorbance based analysis; type: functional
Cell membrane [17] = assay: Induction of cytoplasmic membrane permeabilization in Escherichia coli TG1 assessed as loss of surface smoothness at 2 times of MIC measured after 30 to 60 mins by SEM analysis; conditions: time 30-60 min
Cell membrane [18] = assay: Induction of cytoplasmic membrane permeabilization in Escherichia coli TG1 assessed as increase in fluorescence at 2 times of MIC measured after 10 mins by PI/Sytox green dye based analysis; type: cell membranes
RAW264.7 = assay: Cytotoxicity against mouse RAW264.7 cells assessed as cell killing at 200 uM incubated for 4 to 24 hrs by crystal violet staining based analysis relative to control; type: toxicity; conditions: raw264.7, 200 µM, time 4-24 hrs
Klebsiella pneumoniae [19] = assay: Antibiofilm activity against Klebsiella pneumoniae ATCC43816 assessed as inhibition of biofilm formation incubated for 24 hrs by absorbance based analysis; type: functional

Compound: CC[C@H](C)[C@H](N)C(=O)N[C@@H](CC(N)=O)C(=O)N[C@@H](CC(C)C)C(=O)N[C@@H](CCCCN)C(=O)N[C@@H](CCCCN)C(=O)N[C@@H](CC(C)C)C(=O)N[C@@H](C)C(=O)N[C@@H](CCCCN)C(=O)N[C@@H](CC(C)C)C(=O)NCCCC[C@H](NC(=O)[C@H](CC(C)C)NC(=O)[C@H](CCCCN)NC(=O)[C@H](C)NC(=O)[C@H](CC(C)C)NC(=O)[C@H](CCCCN)NC(=O)[C@H](CCCCN)NC(=O)[C@H](CC(C)C)NC(=O)[C@H](CC(N)=O)NC(=O)[C@@H](N)[C@@H](C)CC)C(=O)NCCCC[C@H](NC(=O)[C@H](CCCCNC(=O)[C@H](CC(C)C)NC(=O)[C@H](CCCCN)NC(=O)[C@H](C)NC(=O)[C@H](CC(C)C)NC(=O)[C@H](CCCCN)NC(=O)[C@H](CCCCN)NC(=O)[C@H](CC(C)C)NC(=O)[C@H](CC(N)=O)NC(=O)[C@@H](N)[C@@H](C)CC)NC(=O)[C@H](CC(C)C)NC(=O)[C@H](CCCCN)NC(=O)[C@H](C)NC(=O)[C@H](CC(C)C)NC(=O)[C@H](CCCCN)NC(=O)[C@H](CCCCN)NC(=O)[C@H](CC(C)C)NC(=O)[C@H](CC(N)=O)NC(=O)[C@@H](N)[C@@H](C)CC)C(N)=O
MIC (Escherichia coli [1]): 0.7 µM (≈ 3.14 µg/mL)
MIC (Enterococcus faecalis): > 25 µM
MIC (Klebsiella pneumoniae [2]): 12 µM (≈ 53.9 µg/mL)
MIC (Klebsiella pneumoniae [3]): 6 µM (≈ 26.9 µg/mL)
MIC (Escherichia coli [4]): 6 µM (≈ 26.9 µg/mL)
MIC (Pseudomonas aeruginosa): 3 µM (≈ 13.5 µg/mL)
Activity (Erythrocyte [5]): Toxic
MIC (Staphylococcus aureus): > 25 µM

Compound: CC(C)C[C@H](NC(=O)[C@@H](NC(=O)[C@@H](NC(=O)[C@@H](N)CO)[C@@H](C)O)C(C)C)C(=O)N[C@H](C(=O)N[C@@H](CO)C(=O)N[C@@H](CCCCN)C(=O)N[C@@H](Cc1ccc(O)cc1)C(=O)N[C@@H](CCCNC(=N)N)C(=O)NCCCC[C@H](NC(=O)[C@H](CCCNC(=N)N)NC(=O)[C@H](Cc1ccc(O)cc1)NC(=O)[C@H](CCCCN)NC(=O)[C@H](CO)NC(=O)[C@@H](NC(=O)[C@H](CC(C)C)NC(=O)[C@@H](NC(=O)[C@@H](NC(=O)[C@@H](N)CO)[C@@H](C)O)C(C)C)[C@@H](C)O)C(=O)NCCCC[C@H](NC(=O)[C@H](CCCCNC(=O)[C@H](CCCNC(=N)N)NC(=O)[C@H](Cc1ccc(O)cc1)NC(=O)[C@H](CCCCN)NC(=O)[C@H](CO)NC(=O)[C@@H](NC(=O)[C@H](CC(C)C)NC(=O)[C@@H](NC(=O)[C@@H](NC(=O)[C@@H](N)CO)[C@@H](C)O)C(C)C)[C@@H](C)O)NC(=O)[C@H](CCCNC(=N)N)NC(=O)[C@H](Cc1ccc(O)cc1)NC(=O)[C@H](CCCCN)NC(=O)[C@H](CO)NC(=O)[C@@H](NC(=O)[C@H](CC(C)C)NC(=O)[C@@H](NC(=O)[C@@H](NC(=O)[C@@H](N)CO)[C@@H](C)O)C(C)C)[C@@H](C)O)C(N)=O)[C@@H](C)O (HELM PEPTIDE1{S.T.V.L.T.S.K.Y.R.K.K.[am]}|PEPTIDE2{S.T.V.L.T.S.K.Y.R.K}|PEPTIDE3{S.T.V.L.T.S.K.Y.R}|PEPTIDE4{S.T.V.L.T.S.K.Y.R}$PEPTIDE1,PEPTIDE4,10:R3-9:R2|PEPTIDE1,PEPTIDE2,11:R3-10:R2|PEPTIDE2,PEPTIDE3,10:R3-9:R2$$$V2.0)
MIC (Escherichia coli [1]): 25 µM (≈ 114 µg/mL)

Compound: H-LLKKVLKAAAK-OH
Stability [6]: Unstable
Stability [7]: Unstable

Compound: I: H-ALLKRIKTLLKK-NH2 / II: H-ALLKRIKTLLK / III: H-ALLKRIKTLL / IV: H-ALLKRIKTLL (amide I:11-IV:C, I:12-II:C, II:11-III:C)
MIC (Escherichia coli [1]): 25 µM

Compound: I: H-INLKAIAALAKKLLKK-NH2 / II: H-INLKAIAALAKKLLK / III: H-INLKAIAALAKKLL / IV: H-INLKAIAALAKKLL (amide I:15-IV:C, I:16-II:C, II:15-III:C)
MIC (Escherichia coli [1]): 12.5 µM

Compound: I: H-KLLKFIKTLLKK-NH2 / II: H-KLLKFIKTLLK / III: H-KLLKFIKTLL / IV: H-KLLKFIKTLL (amide I:11-IV:C, I:12-II:C, II:11-III:C)
MIC (Escherichia coli [1]): 12.5 µM

Compound: I: H-KLLKRIKTLLKK-NH2 / II: H-KLLKRIKTLLK / III: H-KLLKRIKTLL / IV: H-KLLKRIKTLL (amide I:11-IV:C, I:12-II:C, II:11-III:C)
MIC (Escherichia coli [1]): 6 µM
MIC (Enterococcus faecalis): 25 µM
MIC (Klebsiella pneumoniae [2]): 6 µM
MIC (Klebsiella pneumoniae [3]): 12.5 µM
MIC (Escherichia coli [4]): 6 µM
MIC (Pseudomonas aeruginosa): 6 µM
Activity (Erythrocyte [8]): Toxic
MIC (Staphylococcus aureus): 3 µM

Compound: I: H-LLKKVLKAAAKKK-NH2 / II: H-LLKKVLKAAAKK / III: H-LLKKVLKAAAK / IV: H-LLKKVLKAAAK (amide I:12-IV:C, I:13-II:C, II:12-III:C)
MBIC80 (Klebsiella pneumoniae [9]): 50 µM
Activity (Lipopolysaccharide (LPS)): Dose-Dependent Effect
Stability [6]: Stable
MIC (Escherichia coli [1]): 1.5 µM
Activity (Cell membrane [10]): Active
IC20 (Escherichia coli [11]): 6 µM
MIC (Enterococcus faecalis): > 25 µM
Activity (Cell membrane [12]): Dose-Dependent Effect
Activity (Erythrocyte [13]): Non-Toxic
Activity (Cell membrane [14]): Active
MIC (Klebsiella pneumoniae [2]): 12.5 µM
Activity (Cell membrane [15]): Active
MIC (Klebsiella pneumoniae [3]): > 25 µM
MIC (Escherichia coli [4]): 6 µM
MIC (Pseudomonas aeruginosa): 6 µM
MBIC80 (Escherichia coli [16]): 50 µM
Activity (Cell membrane [17]): Active
Activity (Cell membrane [18]): Active
Stability [7]: Stable
MIC (Staphylococcus aureus): > 25 µM
Activity (RAW264.7): 100%
IC20 (Klebsiella pneumoniae [19]): > 50 µM

Compound: I: H-LSAAHRLAIGRRKK-NH2 / II: H-LSAAHRLAIGRRK / III: H-LSAAHRLAIGRR / IV: H-LSAAHRLAIGRR (amide I:13-IV:C, I:14-II:C, II:13-III:C)
MIC (Escherichia coli [1]): 12.5 µM

Compound: I: H-LSAAHSLAIGRRKK-NH2 / II: H-LSAAHSLAIGRRK / III: H-LSAAHSLAIGRR / IV: H-LSAAHSLAIGRR (amide I:13-IV:C, I:14-II:C, II:13-III:C)
MIC (Escherichia coli [1]): 25 µM

Compound: I: H-LSAARSLAIGRRKK-NH2 / II: H-LSAARSLAIGRRK / III: H-LSAARSLAIGRR / IV: H-LSAARSLAIGRR (amide I:13-IV:C, I:14-II:C, II:13-III:C)
MIC (Escherichia coli [1]): 12.5 µM

Next, values leading:

MIC (Escherichia coli [1]): 12.5 µM (≈ 57.6 µg/mL)
Compound: CC[C@H](C)[C@H](NC(=O)[C@H](CO)NC(=O)[C@H](CCCCN)NC(=O)[C@H](CC(C)C)NC(=O)[C@H](CCCCN)NC(=O)[C@@H](N)CC(C)C)C(=O)N[C@H](C(=O)N[C@@H](CO)C(=O)N[C@@H](Cc1c[nH]c2ccccc12)C(=O)NCCCC[C@@H]1NC(=O)[C@H](Cc2c[nH]c3ccccc23)NC(=O)[C@H](CO)NC(=O)[C@@H](NC(=O)[C@@H](NC(=O)[C@H](CO)NC(=O)[C@H](CCCCN)NC(=O)[C@H](CC(C)C)NC(=O)[C@H](CCCCN)NC(=O)[C@@H](N)CC(C)C)[C@@H](C)CC)C(C)NCCCC[C@H](NC(=O)[C@H](CC(C)C)NC(=O)[C@H](CCCCN)NC(=O)[C@@H](N)CC(C)C)C(=O)N[C@@H](CO)C(=O)N[C@@H]([C@@H](C)CC)C(=O)N[C@@H](C(C)C)C(=O)N[C@@H](CO)C(=O)N[C@@H](Cc2c[nH]c3ccccc23)C(=O)NCCCC[C@H](NC(=O)[C@H](Cc2c[nH]c3ccccc23)NC(=O)[C@H](CO)NC(=O)[C@@H](NC(=O)[C@@H](NC(=O)[C@H](CO)NC(=O)[C@H](CCCCN)NC(=O)[C@H](CC(C)C)NC(=O)[C@H](CCCCN)NC(=O)[C@@H](N)CC(C)C)[C@@H](C)CC)C(C)C)C(=O)N[C@H](C(N)=O)CCCCNC1=O)C(C)C (stereo partly specified)

Stability [6]: Stable
Stability [7]: Unstable
Compound: H-GRFKRFRKKL-OH

Stability [6]: Unstable
Stability [7]: Unstable
Compound: H-KKLLGKNWKLM-OH

Stability [6]: Stable
Stability [7]: Unstable
Compound: H-TLLKKVLKAAAK-OH

MIC (Escherichia coli [1]): 12.5 µM
Compound: I: H-GIIDIAKKLFESWKK-NH2 / II: H-GIIDIAKKLFESWK / III: H-GIIDIAKKLFESW / IV: H-GIIDIAKKLFESW (amide I:14-IV:C, I:15-II:C, II:14-III:C)

MIC (Escherichia coli [1]): 12.5 µM
Compound: I: H-KRLWHKVGPFKK-NH2 / II: H-KRLWHKVGPFK / III: H-KRLWHKVGPF / IV: H-KRLWHKVGPF (amide I:11-IV:C, I:12-II:C, II:11-III:C)
